{"source": "patent US20180133211A1", "about": "“METHODS AND MATERIALS FOR PROMOTING BONE FORMATION” (Mayo Foundation for Medical Education and Research, priority 2015, published 2018)", "key": {"[1]": {"system": "sham operated or ovariectomized (OVX) C57B16/J female mice", "assay": "In vivo analysis of SFN effects on bone, μCT", "design": "species or system mouse", "conditions": "sham-operated mice", "experimental": "Analysis of SFN on mice was performed using a protocol similar to that described elsewhere (Kong et al., Arthritis Rheum., 62:159-170 (2010)). In the experimental setting herein, eight week old sham operated or ovariectomized (OVX) C57B16/J female mice were purchased from Charles River laboratories. Mice were injected with 7.5 mM DL-SFN (200 μL of SFN at a concentration of 63.8 mg/mL/kg dissolved in ethanol and further diluted in PBS) intraperitoneally every other day for five weeks. Control mice received vehicle alone.\nImages from tibias fixed in 4% formaldehyde were acquired in a SkyScan 1174 with a resolution of 6 μm (X-ray voltage 50 kV). Image reconstruction was performed by applying a modified Feldkamp algorithm using the Skyscan Nrecon software. 3D and 2D morphometric parameters were calculated for the trabecular bone (350 consecutive slides, 6 μm thick) starting from 300 μm from the growth plate. Threshold values were applied for segmenting trabecular bone corresponding to bone mineral density values of 0.6/cm^3 calcium hydroxyapatite. 3D parameters were based on analysis of a Marching Cubes type model with a rendered surface. Calculation all of 2D areas and perimeters was based on the Pratt algorithm (Pratt et al., IEEE Trans. Biomed. Eng., 38, 306-309 (1991). Bone structural variables and nomenclature were used according to Bouxsein et al. (J. Bone Miner. Res., 25:1468-1486 (2010))."}, "female C57BL/6 mice [2]": {"system": "female C57BL/6 mice", "assay": "microCT of femur after 5 weeks of daily GSK126 (in vivo Ezh2 inhibition)", "design": "species or system mouse", "conditions": "for Ct. TV: cortical bone; for Ct. TV / Ct. Ar / Ct. BV / Ct. Mat.M.Dn / Ct. Th / Ec. Ar / Ps.Ar: femoral midshaft; for Ct. TV / Tb.N / Tb.Sp / Tb.Th / Ct. Ar / Ct. BV / Ct. Mat.M.Dn / Ct. Th / Ec. Ar / Ps.Ar: 5 weeks, mean; for Tb.N / Tb.Sp / Tb.Th: distal femur metaphysis", "experimental": "(§1) Female C57BL/6 mice (Harlan Laboratories) were maintained on a 12-hour light/12-hour dark cycle and were permitted ad libitum access to food and water. For efficacy studies, 6-week old mice received daily intraperitoneal (IP) injections of GSK126 at 15 mg/kg, 50 mg/kg, or vehicle (DMSO) in 20% Captisol adjusted to pH 4-4.5 with IN acetic acid (McCabe et al., Nature, 492:108-112 (2012)) for 5 weeks.\n(§2) The dosage, delivery schedule, and administration route were similar to those described elsewhere (McCabe et al., Nature, 492:108-112 (2012)). Animals were weighed daily. To label mineralizing bone surfaces, mice received subcutaneous injections of calcein (10 mg/kg) 5 days and 24 hours before euthanasia.\nThe quantitative analysis of the femoral metaphysis was performed using a vivaCT 40 scanner (SCANCO Medical AG) with the following parameters: E=55 kVp, 1=145 μA, integration time=300 ms. A 10.5 μm voxel size using a threshold of 220 was applied to all scans at high resolution. Using two-dimensional data from scanned slices, 3D analysis was generated and used to calculate morphometric parameters defining trabecular bone mass and micro-architecture, including Bone Volume/Tissue volume (BV/TV), trabecular number (Tb.N.), trabecular thickness (Tb.Th.), trabecular spacing (Tb.Sp.), and the structure model index (SMI), an indicator of plate-like versus rod-like trabecular architecture."}, "female C57BL/6 mice [3]": {"system": "female C57BL/6 mice", "assay": "Bone histomorphometry of distal femur after 5 weeks of GSK126", "format": "in vivo, mouse", "conditions": "for N.Ob/B.pm / N.Ob/T.Ar / N.Oc/B.Pm / N.Oc/T.Ar / Ob.S/BS / Oc.S/BS: mean", "experimental": "as §1, §2\nThe right distal femur was processed for static and dynamic histomorphometry as described elsewhere (McGee-Lawrence et al., Bone, 48:1117-1126 (2011)). Thin (5 μm) sections were stained with Von Kossa/McNeal's tetrachrome to highlight osteoblast surfaces and Goldner's trichrome to examine mineralizing surface and bone surfaces. Osteoclasts were detected using TRAP staining. Unstained sections were used for assessment of dynamic histomorphometry and bone area. Slides were digitized under 40× magnification using Mikroscan D2 digital whole slide scanner and Q-Skan software (Mikroscan Technologies). Beginning 450 μm proximal to the growth plate, mineralizing surface (MS/BS, %/day), mineral apposition rate (MAR, μm/day), bone formation rate (BFR/BV, %/day), osteoblast surface/bone surface (Ob.S/BS, %), osteoblast number/bone perimeter (N.Ob/B.Pm, #/mm), osteoclast surface/bone surface (Oc.S/BS, %), and osteoclast number/bone perimeter (N.Oc/B.Pm, #/mm) were quantified using Image J software as described elsewhere (Schneider et al., Nat. Methods, 9:671-675 (2012) and Egan et al., Histopathology, 61:1168-1173 (2012))."}, "Mesenchymal stem cells": {"system": "Mesenchymal stem cells", "assay": "RNA-Seq of mesenchymal stem cells treated with BMP2 and/or GSK126", "format": "cell-based, human", "conditions": "2 μM GSK126 together with 50 ng/ml BMP2", "experimental": "mRNASeq was performed on the following samples: 1) MSCs grown on plastic or titanium disks in osteogenic cocktail (one sample from each time-point, samples created by pooling biological triplicates), 2) RNA from d3 AMCs treated with vehicle or 2 μM GSK126 in osteogenic cocktail (three samples from each treatment group), 3) RNA from d3, d6, and d10 MC3T3 treated with vehicle or 5 μM GSK126 (one sample from each treatment group at each time-point, samples created by pooling biological triplicates), 4) RNA from three day old female WT or cKO (Prrx1-Ezh2) (one sample from each genotype, pooling of RNA from three (WT) and two (cKO)), and one sample of MSCs in adipogenic cocktail for six days. High throughput mRNA sequencing and bioinformatic analyses (mRNASeq) were performed as described elsewhere (Dudakovic et al., J. Cell Biochem., 115:1816-1828 (2014)).\nIn addition, osteogenic genes are synergistically activated by GSK126 and BMP2. Mesenchymal stem cells were treated with 50 ng/ml BMP2 and/or 2 μM GSK126. […] Thus, EZH2 inhibition enhances the osteogenic potential of cells treated with BMP2, a key osteogenic activator."}, "[4]": {"conditions": "distal femoral metaphysis, 15 mg/kg"}, "[5]": {"conditions": "distal femoral metaphysis, 50 mg/kg"}}}
{"smiles": "C[S+]([O-])CCCCN=C=S", "note": "(racemic) [DL-SFN]", "values": [{"measurement": "femoral metaphyseal cancellous bone volume per tissue volume (BV/TV)", "setting": "[1]; DL-SFN IP every other day for five weeks", "result": "significantly higher"}, {"measurement": "trabecular number (Tb.N)", "setting": "[1]; DL-SFN for five weeks", "result": "significantly higher"}, {"measurement": "trabecular separation (Tb.Sp.)", "setting": "[1]; DL-SFN for five weeks", "result": "decreasing"}, {"measurement": "trabecular thickness (Tb.Th.)", "setting": "[1]; DL-SFN for five weeks", "result": "not affecting"}]}
{"smiles": "CC[C@H](C)n1cc(C)c2c(C(=O)NCc3c(C)cc(C)[nH]c3=O)cc(-c3ccc(N4CCNCC4)nc3)cc21", "note": "[GSK126, N-[(1,2-dihydro-4,6-dimethyl-2-oxo-3-pyridinyl)methyl]-3-methyl-1-[(1S)-1-methylpropyl]-6-[6-(1-piperazinyl)-3-pyridinyl]-1H-indole-4-carboxamide]", "values": [{"measurement": "cortical bone parameters", "setting": "female C57BL/6 mice [2]; adult mice, 50 mg/kg daily for 5 weeks, in words", "result": "increased"}, {"measurement": "Ct. TV", "setting": "female C57BL/6 mice [2]; 15 mg/kg", "result": 1.184, "unit": "mm^3"}, {"measurement": "Ct. TV", "setting": "female C57BL/6 mice [2]; 50 mg/kg", "result": 1.243, "unit": "mm^3"}, {"measurement": "Tb.N", "setting": "female C57BL/6 mice [2]; 15 mg/kg", "result": 3.850, "unit": "mm^−1"}, {"measurement": "Tb.Sp", "setting": "female C57BL/6 mice [2]; 15 mg/kg", "result": 0.267, "unit": "mm"}, {"measurement": "Tb.Th", "setting": "female C57BL/6 mice [2]; 15 mg/kg", "result": 0.040, "unit": "mm"}, {"measurement": "Tb.N", "setting": "female C57BL/6 mice [2]; 50 mg/kg", "result": 4.053, "unit": "mm^−1"}, {"measurement": "Tb.Sp", "setting": "female C57BL/6 mice [2]; 50 mg/kg", "result": 0.252, "unit": "mm"}, {"measurement": "Tb.Th", "setting": "female C57BL/6 mice [2]; 50 mg/kg", "result": 0.043, "unit": "mm"}, {"measurement": "Ct. Ar", "setting": "female C57BL/6 mice [2]; 15 mg/kg", "result": 0.719, "unit": "mm^2"}, {"measurement": "Ct. BV", "setting": "female C57BL/6 mice [2]; 15 mg/kg", "result": 0.509, "unit": "mm^3"}, {"measurement": "Ct. Mat.M.Dn", "setting": "female C57BL/6 mice [2]; 15 mg/kg", "result": 1235, "unit": "mgHA/cm^3"}, {"measurement": "Ct. Th", "setting": "female C57BL/6 mice [2]; 15 mg/kg", "result": 0.171, "unit": "mm"}, {"measurement": "Ec. Ar", "setting": "female C57BL/6 mice [2]; 15 mg/kg", "result": 0.955, "unit": "mm^2"}, {"measurement": "Ps.Ar", "setting": "female C57BL/6 mice [2]; 15 mg/kg", "result": 1.675, "unit": "mm^2"}, {"measurement": "Ct. Ar", "setting": "female C57BL/6 mice [2]; 50 mg/kg", "result": 0.753, "unit": "mm^2"}, {"measurement": "Ct. BV", "setting": "female C57BL/6 mice [2]; 50 mg/kg", "result": 0.532, "unit": "mm^3"}, {"measurement": "Ct. Mat.M.Dn", "setting": "female C57BL/6 mice [2]; 50 mg/kg", "result": 1238, "unit": "mgHA/cm^3"}, {"measurement": "Ct. Th", "setting": "female C57BL/6 mice [2]; 50 mg/kg", "result": 0.175, "unit": "mm"}, {"measurement": "Ec. Ar", "setting": "female C57BL/6 mice [2]; 50 mg/kg", "result": 1.006, "unit": "mm^2"}, {"measurement": "Ps.Ar", "setting": "female C57BL/6 mice [2]; 50 mg/kg", "result": 1.758, "unit": "mm^2"}, {"measurement": "N.Ob/B.pm", "setting": "female C57BL/6 mice [3]; [4]", "result": "0.028 #/mm"}, {"measurement": "N.Ob/T.Ar", "setting": "female C57BL/6 mice [3]; [4]", "result": 0.109}, {"measurement": "N.Oc/B.Pm", "setting": "female C57BL/6 mice [3]; [4]", "result": "0.015 #/mm"}, {"measurement": "N.Oc/T.Ar", "setting": "female C57BL/6 mice [3]; [4]", "result": 0.042}, {"measurement": "Ob.S/BS", "setting": "female C57BL/6 mice [3]; [4]", "result": 0.354, "unit": "%"}, {"measurement": "N.Ob/B.pm", "setting": "female C57BL/6 mice [3]; [5]", "result": "0.040 #/mm"}, {"measurement": "N.Ob/T.Ar", "setting": "female C57BL/6 mice [3]; [5]", "result": 0.081}, {"measurement": "N.Oc/B.Pm", "setting": "female C57BL/6 mice [3]; [5]", "result": "0.018 #/mm"}, {"measurement": "N.Oc/T.Ar", "setting": "female C57BL/6 mice [3]; [5]", "result": 0.050}, {"measurement": "Ob.S/BS", "setting": "female C57BL/6 mice [3]; [5]", "result": 0.551, "unit": "%"}, {"measurement": "interlabel thickness (Ir.L.Th), mineral apposition rate (MAR) and bone formation rate (BFR)", "setting": "female C57BL/6 mice [3]; dynamic histomorphometry, GSK126 50 mg/kg vs vehicle", "result": "enhanced"}, {"measurement": "Oc.S/BS", "setting": "female C57BL/6 mice [3]; static histomorphometry, distal femoral metaphysis, 15 mg/kg", "result": 0.314, "unit": "%"}, {"measurement": "Oc.S/BS", "setting": "female C57BL/6 mice [3]; static histomorphometry, distal femoral metaphysis, 50 mg/kg", "result": 0.240, "unit": "%"}, {"measurement": "osteoblast surface area per bone surface area (Ob.S/BS)", "setting": "female C57BL/6 mice [3]; static histomorphometry, distal femoral metaphysis, in words (FIG. 19C)", "result": "increase"}, {"measurement": "number of osteoblasts per bone perimeter (N. Ob./B.Pm)", "setting": "female C57BL/6 mice [3]; static histomorphometry, distal femoral metaphysis, in words (FIG. 19D)", "result": "increase"}, {"measurement": "expression of key osteogenic factors DLXS, SP7, IBSP", "setting": "Mesenchymal stem cells", "result": "synergistically enhanced"}]}
